{"source": "paper PMC4426631", "about": "“Insect antimicrobial peptides show potentiating functional interactions against Gram-negative bacteria” (Proceedings of the Royal Society B: Biological Sciences, 2015)", "test_system": "E. coli 498", "experiment": "Bactericidal cell viability assay (CFU after 18 h), E. coli 498", "format": "cell-based", "procedure": "Initial coarse-level growth inhibition assays were carried out with concentrations of peptides up to 200 μM. Further assays of growth rates (bacteriostatic activity) and cell viability (bactericidal activity) were carried out on a finer scale. […] Growth rates were derived from spline-fitted growth curves to optical density (OD) data, while cell viability was assessed by plating cultures and counting colony-forming units after 18 h. Dose–response curves were fitted to both the bacteriostatic and bactericidal data with Markov Chain Monte Carlo parameter optimization (further details in electronic supplementary material). […]\nv) Coarse growth inhibition assays. […]\nThe assa ys were carried out in 96-well plates (Griener Bio On e, Frick enh ausen, Germ an y) in an Eon™ Microplate Spectrophotometer (BioTek Instruments, VT, USA) for 16 h while r eco rding of changes in the OD600 at 20- min intervals. […] The AMPs used inthis assay are sh own in Tables S1and S4. vi) Dose response curv e quantif ication […]\n1.25, 2.5, 5, 10, and 20 μM) in rows, and 10 µl volumes of hymenoptaecin (final concentrations of 0, 0.625, 1.25, 2.5, 5, and 10 μM) in columns. […] Th e OD600 was measured ever y hour for 12 consecutive hours using a SpectraMax M2e microplate reader (Molecular Devices, Sunnyvale, USA). […]\nCell viability. […] Bacteria were grown for 18 h with AMPs before the number of viable cells was assessed. […]", "note": "Cf = 5(6)-carboxyfluorescein"}
{"substance": "abaecin: proline-rich peptide abaecin, species version not specified at the place (Cf-FVPYNPPRPGQSKPFPSFPGHGPFNPKIQWPYPLPNPGH-NH2)", "values": [{"measurement": "impact on cell viability, abaecin alone", "setting": "E. coli 498, concentrations tested up to 20 µM, CFU after 18 h", "value": "no impact on cell viability"}, {"measurement": "lowest abaecin concentration that enhanced the bactericidal effects of hymenoptaecin", "setting": "E. coli, in combination with hymenoptaecin", "value": 1.25, "unit": "µM"}]}
